# Earlier results in patent US20220370506A1, “AUGMENTATION OF FIBROBLAST MEDIATED REGENERATION OF INTRAVERTEBRAL DISCS” (FIGENE, LLC, priority 2019, published 2022).
# Test system: patients with chronic lumbosacral radiculopathy or discogenic low back pain
# [1] = authors' conclusion, single low dose intradiscal
substance,measurement,setting,value
etanercept,pain scores between or within groups,"1-month follow-up, 0.1, 0.25, 0.5, 0.75, 1.0, or 1.5 mg intradiscally in each pain-generating disc, any dose range or subgroup",no differences
same,disability scores between or within groups,"1-month follow-up, 0.1-1.5 mg intradiscally, any dose range or subgroup",no differences
same,effectiveness as treatment for chronic radicular or discogenic low back pain,[1],does not seem to be an effective treatment
same,serious side effects,[1],no serious side effects were observed
same,complications,"intradiscal 0.1-1.5 mg, 36 patients",No complications were reported
same,preprocedure versus postprocedure leukocyte counts,"intradiscal 0.1-1.5 mg, 1-month follow-up",no differences were noted
